Patent US9751869B2, “LXR modulators” (BRISTOL-MYERS SQUIBB COMPANY, priority 2013, dated 2017)

Biological target: T1, LXRβ (Homo sapiens, UniProt P55055)
T1 construct: Co-transfection expression plasmids, comprising full-length LXRα (pCMX-h LXRα or LXRβ (pCMX-hLXRβ)); expressed in transfected cells; host or cells: CV-1 African green monkey kidney cells, transient transfection with pCMX-hLXRβ
T1 sequence (P55055 1-460): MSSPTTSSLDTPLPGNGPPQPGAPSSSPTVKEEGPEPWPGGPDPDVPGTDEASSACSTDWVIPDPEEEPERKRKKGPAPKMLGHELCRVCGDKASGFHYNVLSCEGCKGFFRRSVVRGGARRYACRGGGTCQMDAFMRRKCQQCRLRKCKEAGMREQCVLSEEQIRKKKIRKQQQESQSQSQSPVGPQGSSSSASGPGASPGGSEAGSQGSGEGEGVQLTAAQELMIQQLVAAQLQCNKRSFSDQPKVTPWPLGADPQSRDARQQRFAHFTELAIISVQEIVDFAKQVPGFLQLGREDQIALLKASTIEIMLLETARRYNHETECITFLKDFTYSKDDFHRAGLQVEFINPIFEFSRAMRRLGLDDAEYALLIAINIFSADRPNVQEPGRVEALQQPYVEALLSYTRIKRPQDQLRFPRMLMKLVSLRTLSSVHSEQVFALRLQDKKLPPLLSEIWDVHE
T1 sequence (P19793 1-462 partner): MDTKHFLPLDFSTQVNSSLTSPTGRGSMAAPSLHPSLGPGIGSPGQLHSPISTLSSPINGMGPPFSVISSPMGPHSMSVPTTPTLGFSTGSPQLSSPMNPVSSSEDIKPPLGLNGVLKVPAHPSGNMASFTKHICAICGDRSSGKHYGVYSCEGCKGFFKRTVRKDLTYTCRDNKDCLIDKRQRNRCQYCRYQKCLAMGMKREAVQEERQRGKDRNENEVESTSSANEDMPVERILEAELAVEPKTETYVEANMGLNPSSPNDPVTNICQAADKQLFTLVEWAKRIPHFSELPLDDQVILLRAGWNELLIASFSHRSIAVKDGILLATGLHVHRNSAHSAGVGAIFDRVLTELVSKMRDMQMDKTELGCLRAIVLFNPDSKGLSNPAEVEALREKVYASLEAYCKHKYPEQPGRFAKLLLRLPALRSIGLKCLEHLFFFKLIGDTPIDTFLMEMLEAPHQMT
Experiment: LXR/LXRE co-transfection assay (luciferase reporter) in CV-1 cells, LXRβ
Format: cell-based
Details: for EC50: CV-1 cells transfected with pCMX-hLXRβ and LXREx1-Tk-Luciferase, 20 hours incubation, read-out: LXRbeta agonism EC50; for Emax: CV-1 cells, relative to maximum response of high control N-(3-((4-fluorophenyl)-(naphthalene-2-sulfonyl)amino)propyl)-2,2-dimethylpropionamide, read-out: LXRbeta % EFFICACY
Outline: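 CV-1 cells transiently co-transfected with full-length human LXRβ, LXRE-Tk-luciferase reporter and β-galactosidase control, then exposed to compound (≤0.5% DMSO) for 20 h at 37 °C before luminescence read. EC50 from 10-point, half-log dose curves; efficacy relative to the sulfonamide high control, means of 2–3 experiments.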

Row | SMILES | EC50 [nM] | Emax [%]
1 | Cc1nc(-c2ccc3c(c2)OC(F)(F)O3)c(-c2cc(-c3cc(F)c(CO)c(S(C)(=O)=O)c3)ccc2-c2cc(C(F)(F)C(=O)NCC(N)=O)nn2C)o1 [Example 89, N-(2-amino-2-oxoethyl)-2-(5-(3-(4-(2,2-difluorobenzo[d][1,3]dioxol-5-yl)-2-methyloxazol-5-yl)-3′-fluoro-4′-(hydroxymethyl)-5′-(methylsulfonyl)biphenyl-4-yl)-1-methyl-1H-pyrazol-3-yl)-2,2-difluoroacetamide] | 4780 | 37
2 | Cc1nc(-c2ccc3c(c2)OC(F)(F)O3)c(-c2cc(-c3cc(F)c(CO)c(S(C)(=O)=O)c3)ccc2-c2cc(C(F)(F)C(=O)NC3CC3)nn2C)o1 [Example 88, N-cyclopropyl-2-(5-(3-(4-(2,2-difluorobenzo[d][1,3]dioxol-5-yl)-2-methyloxazol-5-yl)-3′-fluoro-4′-(hydroxymethyl)-5′-(methylsulfonyl)biphenyl-4-yl)-1-methyl-1H-pyrazol-3-yl)-2,2-difluoroacetamide] | 85 | 49
3 | CCOc1cc(C(F)(F)F)nn1-c1ccc(-c2cc(F)c(CO)c(S(C)(=O)=O)c2)cc1-c1nc(C)oc1-c1ccc(OC(F)(F)F)cc1 [Example 382, (4′-(5-ethoxy-3-(trifluoromethyl)-1H-pyrazol-1-yl)-3-fluoro-3′-(2-methyl-5-(4-(trifluoromethoxy)phenyl)oxazol-4-yl)-5-(methylsulfonyl)biphenyl-4-yl)methanol] | 629 | 50
4 | Cc1nc(-c2ccc3c(c2)OC(F)(F)O3)c(-c2cc(-c3cc(F)c(CO)c(S(C)(=O)=O)c3)ccc2-c2cc(C(F)(F)C(=O)O)nn2C)o1 [Example 75, 2-(5-(3-(4-(2,2-difluorobenzo[d][1,3]dioxol-5-yl)-2-methyloxazol-5-yl)-3′-fluoro-4′-(hydroxymethyl)-5′-(methylsulfonyl)biphenyl-4-yl)-1-methyl-1H-pyrazol-3-yl)-2,2-difluoroacetic acid] | 7670 | 52
5 | Cn1nc(C(F)(F)CO)cc1-c1ccc(-c2cccc(S(C)(=O)=O)c2)cc1-n1nncc1-c1ccc(OC(F)(F)F)cc1 [Example 25, 2,2-difluoro-2-(1-methyl-5-(3′-(methylsulfonyl)-3-(5-(4-(trifluoromethoxy)phenyl)-1H-1,2,3-triazol-1-yl)-[1,1′-biphenyl]-4-yl)-1H-pyrazol-3-yl)ethanol] | 1020 | 78
6 | Cc1nc(-c2ccc(OC(F)(F)F)cc2)c(-c2cc(-c3cccc(S(C)(=O)=O)c3)ccc2-c2cc(C(=O)NCC(C)(C)O)nn2C)o1 [Example 124] | 769 | 24
7 | Cc1nc(-c2cc(-c3cccc(S(C)(=O)=O)c3)ccc2-n2ccc(C(F)(F)F)n2)c(-c2ccc(OC(F)(F)F)cc2)o1 [Example 414, 2-methyl-4-(3′-(methylsulfonyl)-4-(3-(trifluoromethyl)-1H-pyrazol-1-yl)biphenyl-3-yl)-5-(4-(trifluoromethoxy)phenyl)oxazole] | 92 | 80
8 | Cc1nc(-c2cc(-c3cc(F)c(CO)c(S(C)(=O)=O)c3)ccc2-c2cc(C(C)(C)C(N)=O)nn2C)c(-c2ccc3c(c2)OC(F)(F)O3)o1 [Example 63, 2-(5-(3-(5-(2,2-difluorobenzo[d][1,3]dioxol-5-yl)-2-methyloxazol-4-yl)-3′-fluoro-4′-(hydroxymethyl)-5′-(methylsulfonyl)biphenyl-4-yl)-1-methyl-1H-pyrazol-3-yl)-2-methylpropanamide] | 55 | 33
9 | Cc1cc(C(C)(F)F)nn1-c1ccc(-c2cccc(S(C)(=O)=O)c2)cc1-n1nncc1-c1ccc(OC(F)(F)F)cc1 [Example 304, 1-{4-[3-(1,1-difluoroethyl)-5-methyl-1H-pyrazol-1-yl]-3′-(methylsulfonyl)biphenyl-3-yl}-5-{4-[(trifluoromethyl)oxy]phenyl}-1H-1,2,3-triazole] | 2860 | 26
10 | Cc1nc(-c2ccc(OC(F)(F)F)cc2)c(-c2cc(-c3cc(F)c(CO)c(S(C)(=O)=O)c3)ccc2-n2ccc(COC(N)=O)n2)o1 [Example 375, (1-(3′-fluoro-4′-(hydroxymethyl)-3-(2-methyl-4-(4-(trifluoromethoxy)phenyl)oxazol-5-yl)-5′-(methylsulfonyl)-[1,1′-biphenyl]-4-yl)-1H-pyrazol-3-yl) methyl carbamate] | 198 | 62

The next compounds have a lower EC50 than those just listed; values first:

Row | EC50 [nM] | Emax [%] | SMILES
11 | 29 | 71 | Cc1nc(-c2ccc(OC(F)(F)F)cc2)c(-c2cc(-c3cc(F)c(CO)c(S(C)(=O)=O)c3)ccc2-n2ccc(C(F)(F)F)n2)o1 [Example 335, (3-fluoro-3′-(2-methyl-4-(4-(trifluoromethoxy)phenyl)oxazol-5-yl)-5-(methylsulfonyl)-4′-(3-(trifluoromethyl)-1H-pyrazol-1-yl)biphenyl-4-yl)methanol]
12 | 26 | 89 | CCC(F)(F)c1cc(-c2ccc(-c3cc(F)c(CO)c(S(C)(=O)=O)c3)cc2-n2nncc2-c2ccc(OC(F)(F)F)cc2)n(C)n1 [Example 2, (4′-(3-(1,1-difluoropropyl)-1-methyl-1H-pyrazol-5-yl)-3-fluoro-5-(methylsulfonyl)-3′-(5-(4-(trifluoromethoxy)phenyl)-1H-1,2,3-triazol-1-yl)biphenyl-4-yl)methanol]
13 | 10 | 101 | Cc1nc(-c2ccc(OC(F)F)nc2)c(-c2cc(-c3cc(F)c(CO)c(S(C)(=O)=O)c3)ccc2-n2ccc(C(F)(F)F)n2)o1 [Example 354, (3′-(4-(6-(difluoromethoxy)pyridin-3-yl)-2-methyloxazol-5-yl)-3-fluoro-5-(methylsulfonyl)-4′-(3-(trifluoromethyl)-1H-pyrazol-1-yl)biphenyl-4-yl)methanol]
14 | 27 | 78 | Cc1nc(-c2ccc(OC(F)F)cc2)c(-c2cc(-c3cccc(S(C)(=O)=O)c3)ccc2-n2nc(C(F)(F)F)cc2C)o1 [Example 327, 4-(4-(difluoromethoxy)phenyl)-2-methyl-5-(4-(5-methyl-3-(trifluoromethyl)-1H-pyrazol-1-yl)-3′-(methylsulfonyl)biphenyl-3-yl)oxazole]
15 | 35 | 69 | Cc1nc(-c2ccc(OC(F)(F)F)cc2)c(-c2cc(-c3ccc(CO)c(S(C)(=O)=O)c3)ccc2-n2nc(C(F)(F)F)cc2C)o1 [Example 333, (4′-(5-methyl-3-(trifluoromethyl)-1H-pyrazol-1-yl)-3′-(2-methyl-4-(4-(trifluoromethoxy)phenyl)oxazol-5-yl)-3-(methylsulfonyl)biphenyl-4-yl)methanol]
16 | 27 | 86 | Cc1nc(-c2ccc(OC(F)(F)F)cc2)c(-c2cc(-c3cc(F)c(CO)c(S(C)(=O)=O)c3)ccc2-n2cc(Cl)c(C(F)(F)F)n2)o1 [Example 379, (4′-(4-chloro-3-(trifluoromethyl)-1H-pyrazol-1-yl)-3-fluoro-3′-(2-methyl-4-(4-(trifluoromethoxy)phenyl)oxazol-5-yl)-5-(methylsulfonyl)-[1,1′-biphenyl]-4-yl)methanol]
17 | 7 | 73 | Cc1nc(-c2ccc3c(c2)OC(F)(F)O3)c(-c2cc(-c3cc(F)c(CO)c(S(C)(=O)=O)c3)ccc2-c2cc(C(F)(F)c3nnco3)nn2C)o1 [Example 51, (4′-(3-(difluoro(1,3,4-oxadiazol-2-yl)methyl)-1-methyl-1H-pyrazol-5-yl)-3′-(4-(2,2-difluorobenzo[d][1,3]dioxol-5-yl)-2-methyloxazol-5-yl)-3-fluoro-5-(methylsulfonyl)biphenyl-4-yl)methanol]
